Experimental data from ChEMBL document CHEMBL1201862, “PubChem BioAssay data set” (2004).
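Exposure lasted 48 hours, with cells grown in 96-well plates and compounds tested at five concentrations. Abbreviation: GI50, concentration required for 50% inhibition of growth.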 The source made the active and inactive calls. Rule as the data show it: active = GI50 up to about 1.1 µM and inactive = higher.

What was measured:
Experiment in all cases: NCI tumour cell line growth inhibition, 48 h
CCRF-CEM = test system: CCRF-CEM
NCI-H522 = test system: NCI-H522
NCI-H226 = test system: NCI-H226
SNB-75 = test system: SNB-75
Malme-3M = test system: Malme-3M
786-0 = test system: 786-0
A498 = test system: A498
OVCAR-8 = test system: OVCAR-8
U-251 = test system: U-251
UO-31 = test system: UO-31
A549 = test system: A549
OVCAR-3 = test system: OVCAR-3
LOX IMVI = test system: LOX IMVI
K562 = test system: K562
IGROV-1 = test system: IGROV-1
UACC-257 = test system: UACC-257
M14 = test system: M14
HOP-92 = test system: HOP-92

SMILES | GI50 (CCRF-CEM) | GI50 (NCI-H522) | GI50 (NCI-H226) | GI50 (SNB-75) | GI50 (Malme-3M) | GI50 (786-0) | GI50 (A498) | GI50 (OVCAR-8) | GI50 (U-251) | GI50 (UO-31) | GI50 (A549) | GI50 (OVCAR-3) | GI50 (LOX IMVI) | GI50 (K562) | GI50 (IGROV-1) | GI50 (UACC-257) | GI50 (M14) | GI50 (HOP-92)
N#Cc1c(N)nc(S)c(C#N)c1-c1ccccc1 | > 100 µM (inactive) | 47.3 µM (inactive) | > 100 µM (inactive) | 58.3 µM (inactive) | > 100 µM (inactive) | > 100 µM (inactive) | > 100 µM (inactive) | > 100 µM (inactive) | > 100 µM (inactive) | 52.8 µM (inactive) | > 100 µM (inactive) | > 100 µM (inactive) | > 100 µM (inactive) | > 100 µM (inactive) | > 100 µM (inactive) | > 100 µM (inactive) |  | 
CN(C)CCC(/C=C/c1ccccc1)=N\Nc1ccc(Cl)c(Cl)c1 | 2.91 µM (inactive) | 2.1 µM (inactive) |  | 2.27 µM (inactive) | 14.2 µM (inactive) | 2.69 µM (inactive) | 4.63 µM (inactive) | 2.7 µM (inactive) | 4.59 µM (inactive) | 1.64 µM (inactive) | 3.13 µM (inactive) | 4.27 µM (inactive) | 1.99 µM (inactive) | 2.23 µM (inactive) | 3.04 µM (inactive) | 3.33 µM (inactive) | 2.72 µM (inactive) | 1.41 µM (inactive)
O=C(/C=C/c1ccc(Cl)cc1)c1ccncc1 | 43.7 µM (inactive) | 64.9 µM (inactive) | > 100 µM (inactive) | 22.1 µM (inactive) | > 100 µM (inactive) | 76.2 µM (inactive) | 27 µM (inactive) | > 100 µM (inactive) | 44 µM (inactive) | 40.3 µM (inactive) | 58.5 µM (inactive) | 40.8 µM (inactive) | 27.1 µM (inactive) | 52.2 µM (inactive) | 48.2 µM (inactive) | 43.5 µM (inactive) | 36.1 µM (inactive) | > 100 µM (inactive)
NC(=O)c1csc(C2C=CC(CO)O2)n1 (configuration not stated) | > 100 µM (inactive) | > 100 µM (inactive) | > 100 µM (inactive) |  | > 100 µM (inactive) | > 100 µM (inactive) | > 100 µM (inactive) | > 100 µM (inactive) | > 100 µM (inactive) | > 100 µM (inactive) | > 100 µM (inactive) | > 10 µM (inactive) | > 100 µM (inactive) | > 100 µM (inactive) | > 100 µM (inactive) | > 100 µM (inactive) | > 100 µM (inactive) | > 100 µM (inactive)
C=C(C(=C)P(=S)(C(C)C)C(C)C)P(=S)(C(C)C)C(C)C | > 100 µM (inactive) | > 100 µM (inactive) | > 100 µM (inactive) | > 100 µM (inactive) | > 100 µM (inactive) | > 100 µM (inactive) | > 100 µM (inactive) | > 100 µM (inactive) | > 100 µM (inactive) | > 100 µM (inactive) | > 100 µM (inactive) | > 100 µM (inactive) | > 100 µM (inactive) | > 100 µM (inactive) | > 100 µM (inactive) | > 100 µM (inactive) | > 100 µM (inactive) | > 100 µM (inactive)
O=C(CC1(O)C(=O)Nc2c(Cl)ccc(Cl)c21)c1ccc(Cl)cc1 (configuration not stated) |  |  | 38.5 µM (inactive) | 26.6 µM (inactive) | 28.8 µM (inactive) | 16.7 µM (inactive) | 38.4 µM (inactive) | 18.9 µM (inactive) | 29.2 µM (inactive) | 34.4 µM (inactive) | 45.5 µM (inactive) | 23.3 µM (inactive) | 18.5 µM (inactive) |  | 23.9 µM (inactive) | 29.9 µM (inactive) | 26.4 µM (inactive) | 37.8 µM (inactive)
O=C(O)c1c2c(cc3c(=O)c4ccccc4[nH]c13)CCCC2 | > 100 µM (inactive) |  | > 100 µM (inactive) | > 100 µM (inactive) | > 100 µM (inactive) | 72.8 µM (inactive) |  | > 100 µM (inactive) | > 10 µM (inactive) | > 100 µM (inactive) | > 100 µM (inactive) | > 100 µM (inactive) | 60.5 µM (inactive) |  | > 100 µM (inactive) | > 100 µM (inactive) |  | 59.7 µM (inactive)
CC(C)c1ccccc1NC(=O)CCc1n[nH]c(=S)o1 | > 64.1 µM (inactive) | > 100 µM (inactive) | > 100 µM (inactive) | > 66.4 µM (inactive) | > 100 µM (inactive) | > 100 µM (inactive) | > 100 µM (inactive) | > 100 µM (inactive) | > 75.9 µM (inactive) | > 100 µM (inactive) | 99.8 µM (inactive) | > 100 µM (inactive) | > 100 µM (inactive) | > 50.7 µM (inactive) | > 100 µM (inactive) | > 100 µM (inactive) | > 100 µM (inactive) | > 100 µM (inactive)
Cc1nc2ccccc2[s+]c1-c1cnc(NC#N)nc1C(=O)Nc1cccc(Cl)c1 | > 100 µM (inactive) | > 100 µM (inactive) | > 100 µM (inactive) | > 100 µM (inactive) | > 100 µM (inactive) | > 100 µM (inactive) | > 100 µM (inactive) | > 100 µM (inactive) | > 100 µM (inactive) | > 100 µM (inactive) | > 100 µM (inactive) | > 100 µM (inactive) | > 100 µM (inactive) | > 100 µM (inactive) | > 100 µM (inactive) | > 100 µM (inactive) | > 100 µM (inactive) | 
COC(=O)C1=C(O)c2cc(-c3ccccc3)c(-c3ccccc3)c(C#N)c2NC(=O)C1 | 7.14 µM (inactive) |  |  | 16.8 µM (inactive) |  | 8.38 µM (inactive) | 33.9 µM (inactive) | 4.13 µM (inactive) | 7.69 µM (inactive) | 1.4 µM (inactive) | 3.5 µM (inactive) | 77.8 µM (inactive) |  | 3.27 µM (inactive) | 0.522 µM (active) | 91.8 µM (inactive) | 4.99 µM (inactive) | 
O=S(=O)(N/N=C/c1ccc(Cl)cc1Cl)c1ccccc1 | 38.5 µM (inactive) |  | 99.3 µM (inactive) | 83 µM (inactive) | > 100 µM (inactive) | > 100 µM (inactive) | > 100 µM (inactive) | 71.4 µM (inactive) | 91.2 µM (inactive) | > 100 µM (inactive) | > 100 µM (inactive) | 91.4 µM (inactive) | 97.9 µM (inactive) | 59 µM (inactive) | > 100 µM (inactive) | > 100 µM (inactive) | 81.1 µM (inactive) | 34.8 µM (inactive)
Cc1cc(C)nc(NS(=O)(=O)c2ccc(Nc3c4ccccc4nc4c(C(=O)NCCN(C)C)cccc34)cc2)n1 | 1.26 µM (inactive) | 0.566 µM (active) | 2.17 µM (inactive) | 10.7 µM (inactive) |  | 11.6 µM (inactive) |  | 0.675 µM (active) | 3.72 µM (inactive) | 1.49 µM (inactive) | 3.13 µM (inactive) |  | 1.74 µM (inactive) | 2.08 µM (inactive) | 2.83 µM (inactive) |  | 6.5 µM (inactive) | 
Cc1cc2c(C)n[nH]c2c(C(=O)O)c1C | > 100 µM (inactive) |  |  | > 100 µM (inactive) |  | > 100 µM (inactive) | > 100 µM (inactive) | > 100 µM (inactive) | > 100 µM (inactive) | 85.5 µM (inactive) | > 100 µM (inactive) | > 100 µM (inactive) |  | > 100 µM (inactive) | > 100 µM (inactive) | > 100 µM (inactive) |  | < 0.01 µM (active)
N#CC(C(=O)C(=O)C(C#N)c1ccc(Br)cc1)c1ccc(Br)cc1 (configuration not stated) | 4.47 µM (inactive) |  | 18.1 µM (inactive) | 5.13 µM (inactive) | 13.6 µM (inactive) | 12.9 µM (inactive) | 15.8 µM (inactive) |  | 11.6 µM (inactive) | 16.3 µM (inactive) | 23.3 µM (inactive) | 9.38 µM (inactive) | 11 µM (inactive) | 12.6 µM (inactive) | 15.6 µM (inactive) | 11.9 µM (inactive) | 14.2 µM (inactive) | 13.3 µM (inactive)
C/C(CC(=O)Nc1ccccc1)=N\NC(N)=S | > 100 µM (inactive) | > 100 µM (inactive) | > 100 µM (inactive) | > 100 µM (inactive) | > 100 µM (inactive) | > 100 µM (inactive) |  | > 100 µM (inactive) | > 100 µM (inactive) | > 100 µM (inactive) | > 100 µM (inactive) | > 100 µM (inactive) | > 100 µM (inactive) | > 100 µM (inactive) | > 100 µM (inactive) | > 100 µM (inactive) | > 100 µM (inactive) | > 100 µM (inactive)
O=C(N/C(=C\c1ccc(/C=C(\NC(=O)c2ccccc2)c2nc3ccccc3[nH]2)cc1)c1nc2ccccc2[nH]1)c1ccccc1 | > 100 µM (inactive) | > 100 µM (inactive) |  | > 100 µM (inactive) | > 100 µM (inactive) | > 100 µM (inactive) | > 100 µM (inactive) | > 100 µM (inactive) | > 100 µM (inactive) | > 100 µM (inactive) | > 100 µM (inactive) | > 100 µM (inactive) | > 100 µM (inactive) | > 100 µM (inactive) | > 100 µM (inactive) | > 100 µM (inactive) | 57.9 µM (inactive) | > 100 µM (inactive)
COC1CC(n2cc(F)c(N)nc2=O)OC1CO (configuration not stated) | > 100 µM (inactive) | > 100 µM (inactive) | > 100 µM (inactive) | > 100 µM (inactive) | > 100 µM (inactive) | > 100 µM (inactive) |  | > 100 µM (inactive) | > 100 µM (inactive) | > 100 µM (inactive) | > 100 µM (inactive) | > 100 µM (inactive) | > 100 µM (inactive) | > 100 µM (inactive) |  | > 100 µM (inactive) | > 100 µM (inactive) | > 100 µM (inactive)
